≈ marks a conversion by molar mass, not a printed value. Read-outs that look alike come from different tables or passages of the source.
Experiments:
[1] = tested on: Klebsiella pneumoniae D 11750/08
[2] = tested on: Mycobacterium tuberculosis 331/88 (H37Rv); experiment: In vitro antimycobacterial MIC, M. tuberculosis; assay type: cell-based
[3] = tested on: M. kansasii 6509/96; experiment: In vitro antimycobacterial MIC, M. kansasii clinical isolate; assay type: cell-based; details: Mycobacterium kansasii
[4] = tested on: Staphylococcus epidermidis H 6966/08; experiment: Antibacterial microdilution broth MIC, S. epidermidis; assay type: cell-based; details: Staphylococcus epidermidis
[5] = tested on: Enterococcus faecalis J 14365/08; experiment: Antibacterial microdilution broth MIC, E. faecalis; assay type: cell-based; details: Enterococcus faecalis, J14365/08; 48 h incubation; read-out: MIC EF 48 h
[6] = tested on: Staphylococcus aureus CCM 4516/08; experiment: Antibacterial microdilution broth MIC, S. aureus; assay type: cell-based; details: Staphylococcus aureus, CCM4516; 48 h incubation; read-out: MIC SA 48 h
[7] = tested on: ESBL-positive Klebsiella pneumoniae J 14368/08
[8] = tested on: Escherichia coli CCM 4517; experiment: Antibacterial microdilution broth MIC, E. coli; assay type: cell-based; details: Escherichia coli, CCM4517; 48 h incubation; read-out: MIC EC 48 h
[9] = tested on: Aspergillus fumigatus 231; experiment: Antifungal microdilution broth MIC, A. fumigatus; assay type: cell-based; details: Aspergillus fumigatus, 231; 48 h incubation; read-out: MIC AF 48 h
[10] = tested on: Mycobacterium avium 330/88; experiment: In vitro antimycobacterial MIC, M. avium; assay type: cell-based
[11] = tested on: Trichosporon asahii 1188; experiment: Antifungal microdilution broth MIC, T. asahii; assay type: cell-based
[12] = tested on: Candida sp.; experiment: Selectivity index for Candida sp. (IC50 HepG2/MIC); assay type: cell-based; details: all Candida species
[13] = tested on: Lichtheimia corymbifera 272; experiment: Antifungal microdilution broth MIC, L. corymbifera; assay type: cell-based; details: Lichtheimia corymbifera, 272; 48 h incubation; read-out: MIC LC 48 h
[14] = tested on: Pseudomonas aeruginosa CCM 1961; experiment: Antibacterial microdilution broth MIC, P. aeruginosa; assay type: cell-based; details: Pseudomonas aeruginosa, CCM1961; 48 h incubation; read-out: MIC PA 48 h
[15] = tested on: Candida tropicalis 156; experiment: Antifungal microdilution broth MIC, C. tropicalis; assay type: cell-based; details: Candida tropicalis, 156; 48 h incubation; read-out: MIC CT 48 h
[16] = tested on: Candida krusei E28; experiment: Antifungal microdilution broth MIC, C. krusei; assay type: cell-based; details: Pichia kudriavzevii, E28; 48 h incubation; read-out: MIC CK 48 h
[17] = tested on: Candida glabrata 20/I; experiment: Antifungal microdilution broth MIC, C. glabrata; assay type: cell-based; details: Nakaseomyces glabratus
[18] = tested on: Mycobacterium kansasii 235/80; experiment: In vitro antimycobacterial MIC, M. kansasii 235/80; assay type: cell-based
[19] = tested on: Candida albicans ATCC 44859; experiment: Antifungal microdilution broth MIC, C. albicans; assay type: cell-based
[20] = tested on: Trichophyton interdigitale 445; experiment: Antifungal microdilution broth MIC, T. interdigitale; assay type: cell-based
[21] = 336 h, 14 d incubation, read-out: MIC Mtb. 331/88 14 d
[22] = 504 h, 21 d incubation, read-out: MIC Mtb. 331/88 21 d
[23] = 6509/96, 168 h, 7 d incubation, read-out: MIC M. kansasii 6509/96 7 d
[24] = 6509/96, 336 h, 14 d incubation, read-out: MIC M. kansasii 6509/96 14 d
[25] = 6509/96, 504 h, 21 d incubation, read-out: MIC M. kansasii 6509/96 21 d
[26] = H6966/08, 48 h incubation, read-out: MIC SE 48 h
[27] = 330/88, 336 h, 14 d incubation, read-out: MIC M. avium 330/88 14 d
[28] = 330/88, 504 h, 21 d incubation, read-out: MIC M. avium 330/88 21 d
[29] = Trichosporon asahii, 1188, 48 h incubation, read-out: MIC TA 48 h
[30] = 48 h incubation, read-out: MIC CG 48 h
[31] = 235/80, 168 h, 7 d incubation, read-out: MIC M. kansasii 235/80 7 d
[32] = 235/80, 336 h, 14 d incubation, read-out: MIC M. kansasii 235/80 14 d
[33] = 235/80, 504 h, 21 d incubation, read-out: MIC M. kansasii 235/80 21 d
[34] = ATCC44859, 48 h incubation, read-out: MIC CA 48 h
[35] = Trichophyton interdigitale, 445, 72 h incubation, read-out: MIC TI 72 h
[36] = Trichophyton interdigitale, 445, 120 h incubation, read-out: MIC TI 120 h
[37] = Trichophyton interdigitale, 445, 72 h, read-out: MIC TI 72 h
[38] = Trichophyton interdigitale, 445, 120 h, read-out: MIC TI 120 h

Row | Structure (SMILES) | MIC KP 24 h [1] [µM] | MIC KP 48 h [1] [µM] | MIC [2, 21] [µM] | MIC [2, 22] [µM] | MIC [3, 23] [µM] | MIC [3, 24] [µM] | MIC [3, 25] [µM] | MIC [5] [µM] | MIC [6] [µM] | MIC KP-E 24 h [7] [µM] | MIC KP-E 48 h [7] [µM] | MIC [8] [µM] | MIC [9] [µM] | MIC [10, 27] [µM] | MIC [10, 28] [µM] | MIC [13] [µM] | MIC [14] [µM] | MIC [15] [µM] | MIC [16] [µM] | MIC [18, 31] [µM] | further results
1 | O=S(=O)(Nc1ncccn1)c1ccc(N=Cc2cc(F)ccc2O)cc1 [Compound 2b, 4-[(5-Fluoro-2-hydroxybenzylidene)amino]-N-(pyrimidin-2-yl)benzenesulfonamide] | >250 | >250 | 125 (≈ 46.5 µg/mL) | 125 (≈ 46.5 µg/mL) | 125 (≈ 46.5 µg/mL) | 250 (≈ 93.1 µg/mL) | 250 (≈ 93.1 µg/mL) | > 250 | > 250 | >250 | >250 | > 250 | > 250 | 500 (≈ 186 µg/mL) | 1000 (≈ 372 µg/mL) | > 250 | > 250 | > 250 | > 250 | 62.5 (≈ 23.3 µg/mL) | MIC [4, 26]: > 250 µM; MIC [11, 29]: > 250 µM; SI for Candida sp. [12]: inactive; MIC [17, 30]: > 250 µM; MIC [18, 32]: 125 µM (≈ 46.5 µg/mL); MIC [18, 33]: 250 µM (≈ 93.1 µg/mL); MIC [19, 34]: > 250 µM; SI for TI ([20]; SI = IC50 (HepG2)/MIC, Trichophyton interdigitale): inactive; MIC [20, 35]: > 250 µM; MIC [20, 36]: > 250 µM
2 | COc1ccc(O)c(C=Nc2ccc(S(=O)(=O)Nc3ncccn3)cc2)c1 [Compound 2h, 4-[(2-Hydroxy-5-methoxybenzylidene)amino]-N-(pyrimidin-2-yl)benzenesulfonamide] | >500 | >500 | 32 (≈ 12.3 µg/mL) | 62.5 (≈ 24 µg/mL) | 16 (≈ 6.15 µg/mL) | 16 (≈ 6.15 µg/mL) | 32 (≈ 12.3 µg/mL) | > 500 | 500 (≈ 192 µg/mL) | >500 | >500 | > 500 | > 500 | 125 (≈ 48.1 µg/mL) | 125 (≈ 48.1 µg/mL) | > 500 | 500 (≈ 192 µg/mL) | 500 (≈ 192 µg/mL) | > 500 | 16 (≈ 6.15 µg/mL) | MIC ([4]; H6966/08, 24 h, read-out: MIC SE 24 h): 62.5 µM (≈ 24 µg/mL); MIC ([4]; H6966/08, 48 h, read-out: MIC SE 48 h): 62.5 µM (≈ 24 µg/mL); MIC [11, 29]: 500 µM (≈ 192 µg/mL); MIC [17, 30]: 500 µM (≈ 192 µg/mL); MIC [18, 32]: 32 µM (≈ 12.3 µg/mL); MIC [18, 33]: 62.5 µM (≈ 24 µg/mL); MIC [19, 34]: 500 µM (≈ 192 µg/mL); MIC [20, 37]: 62.5 µM (≈ 24 µg/mL); MIC [20, 38]: 62.5 µM (≈ 24 µg/mL); MIC ([20]; Trichophyton interdigitale, 445, read-out: MIC for T. interdigitale): 62.5 µM (≈ 24 µg/mL)
3 | O=S(=O)(Nc1ncccn1)c1ccc(N=Cc2cc(Br)ccc2O)cc1 [Compound 2d, 4-[(5-Bromo-2-hydroxybenzylidene)amino]-N-(pyrimidin-2-yl)benzenesulfonamide] | 500 (≈ 217 µg/mL) | 500 (≈ 217 µg/mL) | 16 (≈ 6.93 µg/mL) | 32 (≈ 13.9 µg/mL) | 32 (≈ 13.9 µg/mL) | 32 (≈ 13.9 µg/mL) | 62.5 (≈ 27.1 µg/mL) | > 500 | 500 (≈ 217 µg/mL) | 500 (≈ 217 µg/mL) | 500 (≈ 217 µg/mL) | 500 (≈ 217 µg/mL) | 250 (≈ 108 µg/mL) | 125 (≈ 54.2 µg/mL) | 125 (≈ 54.2 µg/mL) | > 500 | 500 (≈ 217 µg/mL) | 250 (≈ 108 µg/mL) | 250 (≈ 108 µg/mL) | 32 (≈ 13.9 µg/mL) | MIC [4, 26]: 250 µM (≈ 108 µg/mL); MIC ([11]; Trichosporon asahii, 1188, 24 h, read-out: MIC TA 24 h): 62.5 µM (≈ 27.1 µg/mL); MIC ([11]; Trichosporon asahii, 1188, 48 h, read-out: MIC TA 48 h): 62.5 µM (≈ 27.1 µg/mL); MIC ([17]; 24 h, read-out: MIC CG 24 h): 62.5 µM (≈ 27.1 µg/mL); MIC ([17]; 48 h, read-out: MIC CG 48 h): 62.5 µM (≈ 27.1 µg/mL); MIC [18, 32]: 62.5 µM (≈ 27.1 µg/mL); MIC [18, 33]: 62.5 µM (≈ 27.1 µg/mL); MIC ([19]; ATCC44859, 24 h, read-out: MIC CA 24 h): 125 µM (≈ 54.2 µg/mL); MIC ([19]; ATCC44859, 48 h, read-out: MIC CA 48 h): 125 µM (≈ 54.2 µg/mL); MIC [20, 37]: 62.5 µM (≈ 27.1 µg/mL); MIC [20, 38]: 62.5 µM (≈ 27.1 µg/mL)
4 | O=[N+]([O-])c1ccc(O)c(C=Nc2ccc(S(=O)(=O)Nc3ncccn3)cc2)c1 [Compound 2f, 4-[(2-Hydroxy-5-nitrobenzylidene)amino]-N-(pyrimidin-2-yl)benzenesulfonamide] | >500 | >500 | 250 (≈ 99.8 µg/mL) | 250 (≈ 99.8 µg/mL) | 125 (≈ 49.9 µg/mL) | 250 (≈ 99.8 µg/mL) | 250 (≈ 99.8 µg/mL) | 500 (≈ 200 µg/mL) | 250 (≈ 99.8 µg/mL) | 500 (≈ 200 µg/mL) | 500 (≈ 200 µg/mL) | 250 (≈ 99.8 µg/mL) | > 500 | 500 (≈ 200 µg/mL) | 1000 (≈ 399 µg/mL) | 500 (≈ 200 µg/mL) | 500 (≈ 200 µg/mL) | > 500 | > 500 | 125 (≈ 49.9 µg/mL) | MIC [4, 26]: 500 µM (≈ 200 µg/mL); MIC [11, 29]: > 500 µM; MIC [17, 30]: 250 µM (≈ 99.8 µg/mL); MIC [18, 32]: 250 µM (≈ 99.8 µg/mL); MIC [18, 33]: 500 µM (≈ 200 µg/mL); MIC [19, 34]: 500 µM (≈ 200 µg/mL); MIC [20, 35]: 62.5 µM (≈ 25 µg/mL); MIC [20, 36]: 62.5 µM (≈ 25 µg/mL); MIC ([20]; Trichophyton interdigitale, 445, incubation time not given, read-out: MIC for T. interdigitale): 62.5 µM (≈ 25 µg/mL)

Source: PMC6151383 (Molecules : A Journal of Synthetic Chemistry and Natural …, 2017)
